{"source": "patent US6849598B1", "about": "“Therapeutic compositions comprising bactericidal/permeability-increasing (BPI) protein products” (XOMA, priority 1995, dated 2005)", "molecules": {"B1": {"name": "rBPI21: expression product of DNA encoding amino acid 1 to approximately 193 or 199 of BPI holoprotein, cysteine 132 substituted with alanine (protein, UniProt P17213 32-224, looked up, variant C132A)", "chain": "VNPGVVVRISQKGLDYASQQGTAALQKELKRIKIPDYSDSFKIKHLGKGHYSFYSMDIREFQLPSSQISMVPNVGLKFSISNANIKISGKWKAQKRFLKMSGNFDLSIEGMSISADLKLGSNPTSGKPTITASSCSSHINSVHVHISKSKVGWLIQLFHKKIESALRNKMNSQVCEKVTNSVSSELQPYFQTL"}}, "assay_type_in_all_cases": "cell-based", "key": {"E. faecium": {"system": "E. faecium", "assay": "Antibiotic susceptibility (MIC, Sensititre Trays) with rBPI21 poloxamer formulations; on susceptibility interpretation of MIC (superscript): key: clinically resistant (R); intermediate (I); susceptible (S)", "settings": "for MIC: Enterococcus faecium, read-out: Minimum Inhibitory Concentration"}, "S. aureus": {"system": "S. aureus", "assay": "Bactericidal activity in water, TSB, CSMHB or serum, CFU after 24 hours (Example 5)", "experimental": "(§1) The bactericidal activity of therapeutic compositions comprising BPI protein product and PLURONIC F68, P103, P104, P105 or P123 were evaluated against the S. aureus and A. baumannii organisms of Example 1, the S. pneumoniae organism of Example 3, an E. faecium organism (Microscan® ID No. 16866), and a strain of P. aeruginosa from the American Type Culture Collection (ATCC No. 19660). Therapeutic compositions were formulated by adding the appropriate amount of poloxamer to a stock solution of 2.2 mg/mL rBPI21 (5 mM sodium citrate, 150 mM NaCl, without poloxamer), to achieve the desired 0.2% (w/v) poloxamer concentration, followed by sterile filtration. Formulated product was stored at 2-8° C. for up to 6 months. Sterile stock solutions of poloxamer were made by dissolving the poloxamer paste in water for injection (WFI, Kendall-McGaw) with mixing to a 1-5% concentration (w/v) at room temperature, followed by sterile filtration. Assays were conducted in 96-well microtiter plates using WFI, tryptic soy broth (TSB, Remel, Lenexa, Kans.), Mueller-Hinton Broth plus Cations (CSMHB, Remel), or 40% pooled human serum in CSMHB (Sigma, St. Louis, Mo.) as growth media, according to the general procedure described above in Examples 2 and 3."}, "A. baumannii": {"system": "A. baumannii", "assay": "Bactericidal activity in water, TSB, CSMHB or serum, CFU after 24 hours (Example 5)", "experimental": "as §1"}, "[1]": {"system": "E. faecium (Microscan® ID No. 16866)", "assay": "Bactericidal activity in water, TSB, CSMHB or serum, CFU after 24 hours (Example 5)", "experimental": "as §1"}, "S. pneumoniae": {"system": "S. pneumoniae", "assay": "Bactericidal activity in water, TSB, CSMHB or serum, CFU after 24 hours (Example 5)", "settings": "Control 3 × 10^5", "experimental": "as §1"}, "[2]": {"settings": "CSMHB, 16 μg/mL rBPI21 with F68"}, "[3]": {"settings": "CSMHB, 16 μg/mL rBPI21 with P103"}, "[4]": {"settings": "CSMHB, 16 μg/mL rBPI21 with P104"}, "[5]": {"settings": "CSMHB, 16 μg/mL rBPI21 with P105"}, "[6]": {"settings": "CSMHB, 16 μg/mL rBPI21 with P123"}, "[7]": {"settings": "Serum, 16 μg/mL rBPI21 with F68"}, "[8]": {"settings": "Serum, 16 μg/mL rBPI21 with P103"}, "[9]": {"settings": "Serum, 16 μg/mL rBPI21 with P104"}, "[10]": {"settings": "Serum, 16 μg/mL rBPI21 with P105"}, "[11]": {"settings": "Serum, 16 μg/mL rBPI21 with P123"}}, "note": "Where two headings read alike, the source gives them in different places.", "data": [{"molecule": "O=C(N[C@H](CO)[C@H](O)c1ccc([N+](=O)[O-])cc1)C(Cl)Cl", "note": "[Chloramphenicol]", "values": [{"measurement": "susceptibility interpretation of MIC (superscript)", "setting": "E. faecium; [2]", "result": "S"}, {"measurement": "susceptibility interpretation of MIC (superscript)", "setting": "E. faecium; [3]", "result": "S"}, {"measurement": "susceptibility interpretation of MIC (superscript)", "setting": "E. faecium; [4]", "result": "S"}, {"measurement": "susceptibility interpretation of MIC (superscript)", "setting": "E. faecium; [5]", "result": "S"}, {"measurement": "susceptibility interpretation of MIC (superscript)", "setting": "E. faecium; [6]", "result": "S"}, {"measurement": "susceptibility interpretation of MIC (superscript)", "setting": "E. faecium; CSMHB, Control (no BPI)", "result": "I"}, {"measurement": "MIC", "setting": "E. faecium; [2]", "result": "< 4", "unit": "µg/mL"}, {"measurement": "MIC", "setting": "E. faecium; [3]", "result": "< 4", "unit": "µg/mL"}, {"measurement": "MIC", "setting": "E. faecium; [4]", "result": "< 4", "unit": "µg/mL"}, {"measurement": "MIC", "setting": "E. faecium; [5]", "result": "< 4", "unit": "µg/mL"}, {"measurement": "MIC", "setting": "E. faecium; [6]", "result": "< 4", "unit": "µg/mL"}, {"measurement": "MIC", "setting": "E. faecium; CSMHB, Control (no BPI)", "result": 16, "unit": "µg/mL"}, {"measurement": "MIC", "setting": "E. faecium; [7]", "result": 8, "unit": "µg/mL"}, {"measurement": "MIC", "setting": "E. faecium; [8]", "result": 8, "unit": "µg/mL"}, {"measurement": "MIC", "setting": "E. faecium; [9]", "result": 8, "unit": "µg/mL"}, {"measurement": "MIC", "setting": "E. faecium; [10]", "result": 8, "unit": "µg/mL"}, {"measurement": "MIC", "setting": "E. faecium; [11]", "result": 8, "unit": "µg/mL"}, {"measurement": "MIC", "setting": "E. faecium; Serum, Control (no BPI)", "result": 8, "unit": "µg/mL"}, {"measurement": "susceptibility interpretation of MIC (superscript)", "setting": "E. faecium; [7]", "result": "S"}, {"measurement": "susceptibility interpretation of MIC (superscript)", "setting": "E. faecium; [8]", "result": "S"}, {"measurement": "susceptibility interpretation of MIC (superscript)", "setting": "E. faecium; [9]", "result": "S"}, {"measurement": "susceptibility interpretation of MIC (superscript)", "setting": "E. faecium; [10]", "result": "S"}, {"measurement": "susceptibility interpretation of MIC (superscript)", "setting": "E. faecium; [11]", "result": "S"}, {"measurement": "susceptibility interpretation of MIC (superscript)", "setting": "E. faecium; Serum, Control (no BPI)", "result": "S"}]}, {"molecule": "B1", "values": [{"measurement": "colony forming units after 24 hours of incubation", "setting": "S. aureus; Serum (40% pooled human serum in CSMHB), Control 4.2 × 10^5", "result": ">1 × 10^5"}, {"measurement": "colony forming units after 24 hours of incubation", "setting": "S. aureus; TSB, Control 5.4 × 10^5", "result": "5.7 × 10^5"}, {"measurement": "colony forming units after 24 hours of incubation", "setting": "S. aureus; Water, Control 8.2 × 10^5", "result": "3.2 × 10^4"}, {"measurement": "colony forming units after 24 hours of incubation", "setting": "A. baumannii; Serum (40% pooled human serum in CSMHB), Control 2 × 10^5", "result": "2 × 10^5"}, {"measurement": "colony forming units after 24 hours of incubation", "setting": "A. baumannii; TSB, Control 3 × 10^6", "result": "6 × 10^2"}, {"measurement": "colony forming units after 24 hours of incubation", "setting": "A. baumannii; Water, Control 2 × 10^6", "result": "<100"}, {"measurement": "colony forming units after 24 hours of incubation", "setting": "[1]; TSB, Control 5 × 10^5", "result": "5 × 10^5"}, {"measurement": "colony forming units after 24 hours of incubation", "setting": "[1]; Water, Control 4 × 10^5", "result": 100}, {"measurement": "colony forming units after 24 hours of incubation", "setting": "S. pneumoniae", "result": "5 × 10^4"}]}]}
